According to paper PMC11516055, “From Static to Dynamic Structures: Improving Binding Affinity Prediction with Graph‐Based Deep Learning” (Advanced Science, 2024):

Legend:
HSP90 = target: HSP90; set-up: method as in CASF-2016; conditions: HSP90 ligand in CASF-2016, reference structure for docking; ref CASF-2016; cited from earlier work
T315I Abl kinase domain = target: T315I Abl kinase domain; set-up: method as in PMID 17804707; conditions: experimental value, PDB ID 2v7a, CASF-2016; cited from earlier work
[1] = target: aspartyl protease β-secretase (BACE); set-up: method as in PMID 22468999; conditions: experimental value, PDB ID 3udh; cited from earlier work
HSP90 (9-236) = target: T1, HSP90 (9-236) (Homo sapiens, UniProt P07900); experiment: Surface plasmon resonance (SPR) measurement of Ki on immobilised HSP90 (9-236); format: binding; conditions: Biacore S200, HSP90 (9-236) on CM5 chip, 1 × PBS with 5% DMSO
T1 construct: HSP90 (9‐236) was cross‐linked on the surface of the Series S Sensor Chip CM5
Description: Next, we performed docking on HSP90 against the ChemBridge DIVERSet‐EXP library, which contains 50,000 small molecules that cover a diverse pharmacophore space. The docked conformers were obtained using Autodock Vina, a widely used open‐source docking software.^[ [16], [60] ^] The reference protein‐ligand structure (PDB ID: 2xdl) was chosen from the test set, CASF‐2016, to identify the binding pocket. Then, the docked poses were used to score and rank the molecules based on the Dynaformer predictions. After that, the top‐ranked compounds were filtered and visually inspected for prioritization, following the approach and criteria described in the literature^[ [7], [61] ^] (see Experimental Section for details). To ensure the fairness of prioritization, we created a pool consisting of molecules among the top 10% from both Dynaformer and the original scoring function in Autodock Vina. From the pool, 20 molecules were chosen without knowing their rankings. Finally, surface plasmon resonance (SPR) experiments were conducted for each of the 20 molecules to measure the inhibition constant K i . In total, 12 of the 20 molecules had measurable binding affinities.
Finally, the binding affinities of the above 20 molecules were experimentally validated. Surface plasmon resonance (SPR) measurements were performed by the Biacore S200 instrument (GE Healthcare Life Sciences). HSP90 (9‐236) was cross‐linked on the surface of the Series S Sensor Chip CM5 (GE Healthcare) at pH 4.0 by an amine coupling kit with 1‐ethyl‐(3‐dimethylaminopropyl)‐carbodiimide hydrochloride (EDC) and NHS. Experiments were performed in a running buffer (1 × PBS with 5% DMSO). Each compound was serially diluted by a factor of two in the running buffer. The compound solution flowed through the surface of the chip at a flow rate of […]. Sensorgrams were analyzed and generated by Biacore Evaluation Software.

| SMILES | Ki (HSP90 (9-236)) | also measured |
| --- | --- | --- |
| CCN(CC)C(=O)c1ccc(O)c(OC)c1 [2XDL] | – | pKi (HSP90): 3.10 |
| CO[C@@H](C(=O)N1Cc2[nH]nc(NC(=O)c3ccc(N4CCN(C)CC4)cc3)c2C1)c1ccccc1 [2v7a] | – | pKi (T315I Abl kinase domain): 8.3 |
| O=C1Nc2ccccc2[C@]12CCNC2 [3udh] | – | pKi [1]: 2.8 |
| CC1=NNc2nc3c(c(=O)n(Cc4c(F)cccc4Cl)c(=O)n3C)n2C1 [compound 1] | 0.207 µM | – |
| COc1cccc(C(=O)Nc2ccc(Oc3ccccc3)cc2)c1OC [compound 2] | 0.517 µM | – |
| Cc1ccc(Cn2c(C)c(C)n3c4c(=O)[nH]c(=O)n(C)c4nc23)cc1 [compound 4] | 2.5 µM | – |
| Nc1c(C(=O)c2ccccc2)sc2nc3c(cc12)CCCC3 [compound 5] | 3.97 µM | – |
| O=C(Nc1ccccc1)C1CC(=O)N(c2ccc3c4c(cccc24)CC3)C1 (stereo not shown) [compound 6] | 4.5 µM | – |

Further lines, with some results ahead:

| Ki (HSP90 (9-236)) | SMILES | also measured |
| --- | --- | --- |
| 6.9 µM | Cc1cccc(C(=O)Nc2ccc3c(c2)OCCO3)c1[N+](=O)[O-] [compound 7] | – |
| 10 µM | O=c1[nH]c(=O)c2c(-c3cccc4ccccc34)ccnc2[nH]1 [compound 8] | – |
| 68.6 µM | Cc1ccc(-c2nc3nc4ccccc4nc3n2CC2CCCO2)cc1 (stereo not shown) [compound 9] | – |
| 70 µM | Cc1nn(-c2nc3ccccc3[nH]2)c2c1C(=O)CC(c1ccccc1O)C2 (stereo not shown) [compound 10] | – |
| 98 µM | CCCC(=O)N1CCN(c2ccc(NC(=O)c3cccc(C)c3OC)cc2)CC1 [compound 11] | – |
